Laboratory results: patent US5231082A, “Cyclic peptide with anti-metastasis activity” (Monsanto Company, priority 1989, dated 1993)
Peptide text beside a SMILES is read from it.

What was measured:
[1] = system: 67 kd laminin receptor; assay: Laminin receptor binding / elution from laminin affinity columns
[2] = system: HT-1080 cells; assay: In vitro cell attachment assays; type: cell-based, human
Description: HT-1080 cells from a human fibrosarcoma (Rasheed, S. et al., Cancer (Philadelphia) 33:1027 (1974) are maintained in Dulbecco's modified Eagle's medium (DMEM) supplemented with 10% fetal calf serum. After the cells are grown to 80% confluency, they are washed with 0.02M phosphate buffer, pH 7.4, without CA^+2 and Mg^+2 and detached with a solution of 0.025% trypsin plus 0.025% ethylenediaminetetraacetic acid (EDTA; GIBCO). The cells are then pelleted by low speed centrifugation and resuspended in Eagle's minimal essential medium (EMEM) containing 0.02% bovine serum albumin (BSA, Sigma Chemical Co., St. Louis, Mo.). Cell attachment assays are performed as described in Klebe, R.J. Nature (London) 250:248 (1974), on tissue culture plastic substrates by using 16-mm Falcon tissue culture wells (Fisher Scientific Co., Pittsburg, Pa.) incubated with various peptides or with laminin in lmL of EMEM containing 0.02% BSA for 1 or 2 hours at 37° C. Cells (10^5 in 0.1 mL) are added to the wells, and the solution is incubated for an additional 1 hour at 37° C. in 95% air and 5% CO2. Subsequently, the wells are rinsed 3 times with lmL of phosphate-buffered saline (PBS) to remove unattached cells. Attached cells are trypsinized and counted electronically (Coulter, ZBI). […]

[3] = system: B16F10 melanoma cells; assay: Lung tumor colonization assay; type: in vivo, mice
Description: B16F10 melanoma cells, obtained from I.J. Fidler, M.D., Anderson Hospital, Houston, TX, are propagated under standard culture conditions. The lung tumor colonization assay is carried out as described in Fidler, I.J., Nature (London) (New Biol.) 242:148 (1973). Peptides are dissolved at 5 mg/mL in PBS and are filter-sterilized. The suspension of B16F10 cells (5×10^5) in 0.1 mL of DMEM is mixed with 0.1 mL of the peptide (or .1 ml PBS in control), incubated for 5 minutes at room temperature, and then injected into the tail vein of syngeneic C57BL/6 female mice (Jackson Labs., Bar Harbor, Me.) at 6 weeks of age. Each treatment and control group consists of eight mice. Three weeks after the injections, the mice are killed and the number of pulmonary tumors on the surface of the lungs counted.

## CC[C@H](C)[C@@H]1NC(=O)[C@H](Cc2ccc(O)cc2)NC(=O)[C@@H](CCCNC(=N)N)NC(=O)[C@H](CO)NC(=O)CNC1=O [cyclic peptide of the invention] (HELM PEPTIDE1{G.S.[dR].Y.I}$PEPTIDE1,PEPTIDE1,1:R1-5:R2$$$V2.0)
[1]
  elution of laminin receptor from laminin affinity columns: elutes the laminin receptor from laminin affinity columns
[1]; 67 kd laminin receptor
  binding of laminin receptor: binds the 67 kd laminin receptor
[2]; HT-1080 cells, compared with the straight chain peptide, FIG. 1
  affinity for cell adhesion: higher affinity for cell adhesion than the straight chain peptide
[2]; summary statement
  blocking of cell adhesion and laminin-mediated adhesion: blocks cell adhesion, laminin-mediated adhesion
[3]; B16F10 cells mixed with peptide, injected into tail vein of C57BL/6 female mice, counted three weeks after injection, compared with linear YIGSR-NH2, FIG. 2
  in vivo antimetastatic effectiveness (number of pulmonary tumors on the surface of the lungs): at least twice as effective as linear YIGSR-NH2
[3]; summary statement
  melanoma cell colonization: blocks
